Results: US12661309B2, “Preparation and efficacy of tooth whitening tablet including SHMP” (The Hershey Company, priority 2018, dated 2026)

Experiments:
[1] = Stain removal (ΔE whitening index) on pre-stained bovine enamel slabs
Procedure: Commercially available bovine enamel slabs were purchased from Theremetrics Inc. The slabs were prepared by immersing the enamel specimens in a staining broth containing coffee, tea and gastric mucin and air-drying the specimens. The gastric mucin (glycoprotein) was added to the straining broth to afford pellicle formation on the enamel surface. This mimics the dental pellicle formed by the glycoproteins present in the saliva. The broth immersion and air-drying procedure was repeated several times up to four days to afford a heavily-stained film containing the pellicle, as shown in FIG. 2.
Six treatments were performed with 3 bovine enamel slabs per treatment (2 medium stained and 1 heavy stained). The following treatment regimen was followed. The pre-stained enamel slabs were suspended in aqueous medium using a thin rod in a plastic container. […]
After the treatment, the solution was emptied and the slab was rinsed with DI water and wiped with paper towel. […] The whiteness index was measured using Xrite spectrophotometer (L*a b) at the end of 28 and 56 cycles or treatments. […]
The term ΔE, known as the whitening index value, represents the change in color difference from baseline measurements. The L* a* b* values were measured by Xrite spectrophotometer which was calibrated every time prior use. […] Using the L* a* b* values, ΔE was calculated according to the formula as shown below. […]
The three phosphate buffer solutions (pH 5.8, 7.0, 8.0) were prepared using 0.2M NaH2PO4 and 0.2M Na2HPO4. […] The L* a* b* measurements were measured by Xrite spectrophotometer and digital images were taken at baseline, 28 cycles and at end of 56 cycles.
Artificial saliva was used as the medium for this example. […] The L* a* b* measurements were measured by Xrite spectrophotometer and digital images were taken at baseline, after 28 cycles and after 56 cycles.
Artificial saliva was used as the medium for Example 4. […] The L* a* b* measurements were measured by Xrite spectrophotometer and digital images were taken at baseline, after 28 treatment cycles and after 56 treatment cycles.

[2] = hydrolyze to form orthophosphates; cited from earlier work

SMILES	stain removal, ingredient only vs tableted forms (Codes H, L & D) ([1]; Example 1, specifically heavy stains)	relationship between SHMP concentration and stain removal efficacy ΔE values ([1]; Example 3, 0-8% SHMP tablets, medium stained slabs, artificial saliva)	reduction of whitening efficacy ([1]; Example 3, dropping SHMP level in tablet from 8% to 5%, artificial saliva) [%]	stability in acidic environments [2]
O=P1([O-])OP(=O)([O-])OP(=O)([O-])OP(=O)([O-])OP(=O)([O-])OP(=O)([O-])O1.[Na+].[Na+].[Na+].[Na+].[Na+].[Na+] [Code B, sodium hexametaphosphate]	performed better than tableted forms	–	–	–
O=P1([O-])OP(=O)([O-])OP(=O)([O-])OP(=O)([O-])OP(=O)([O-])OP(=O)([O-])O1.[Na+].[Na+].[Na+].[Na+].[Na+].[Na+] [SHMP, sodium hexametaphosphate]	–	linear relationship	32	not stable
